According to patent US4704389A, “Aromatic omega-alkyl-imino-tetrahydro-6H-1,3-thiazin-6-one derivatives” (Merrell Dow Pharmaceuticals Inc., priority 1987, dated 1987):
Counter-ions that a name gives are not always drawn.

Legend:
[1] = system: naive adult male Sprague-Dawley rats; assay: Rat licking (Vogel conflict) test for anxiolytic activity; type: in vivo; conditions: subcutaneous, 30 min before test, control 119 ± 30
Description: Following the procedure described by Vogel et al., Psychopharmacologia 21, 1-7 (1971), thirsty naive rats are periodically administered shocks in an appropriate test apparatus for licking water, thereby setting up a simple conflict procedure. In the following experiment, naive adult male Sprague-Dawley rats (approximately 170 g) are randomly divided into 5 groups and deprived of water for 48 hours prior to the test session. Food is available in the home cage at all times.
Thirty minutes following subcutaneous injection, each animal is placed in the apparatus, permitted to find the drinking tube and complete 20 licks before shock is administered. The test animal controls shock duration by withdrawing from the drinking tube. At the termination of the first shock, shocks are delivered following each twentieth lick. The number of licks, indicating the number of shocks taken during a 3 minute period is recorded for each animal, compared with placebo, and with animals treated with established anxiolytic agents. A "release" from suppressed licking response, i.e., a greater number of licks compared to controls, is predictive of anxiolytic activity.
Following essentially this same procedure, the following results are observed utilizing the compound of Example II, i.e., 2-[4-[4-(2-pyrimidinyl)-1-piperazinyl]butylimino]-tetrahydro-4,4-dimethyl- 6H-1,3-thiazin-6-one

5-HT1A recognition sites = target: T1, 5-HT1A recognition sites (Rattus norvegicus, UniProt P19327); assay: 5-HT1A radioligand binding ([3H]-8-OH-DPAT); conditions: rat frontal cortex homogenate, 37° C. 15 min, read-out: 5-HT1A Binding Affinity Rat Brain Cortex (pIC50) (converted)
T1 sequence (P19327 1-422): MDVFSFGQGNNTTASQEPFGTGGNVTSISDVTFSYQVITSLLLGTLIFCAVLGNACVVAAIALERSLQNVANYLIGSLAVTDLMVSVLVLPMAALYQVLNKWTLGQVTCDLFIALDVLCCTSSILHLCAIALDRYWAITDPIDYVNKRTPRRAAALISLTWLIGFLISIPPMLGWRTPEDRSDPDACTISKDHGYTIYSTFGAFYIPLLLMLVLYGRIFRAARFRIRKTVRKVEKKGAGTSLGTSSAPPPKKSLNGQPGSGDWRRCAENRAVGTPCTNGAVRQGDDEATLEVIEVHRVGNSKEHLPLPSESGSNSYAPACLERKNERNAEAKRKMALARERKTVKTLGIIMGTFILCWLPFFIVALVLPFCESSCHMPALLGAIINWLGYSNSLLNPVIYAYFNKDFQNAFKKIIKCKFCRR
Description: Radioligand binding studies of the 5-HT1A recognition sites are conducted in the following manner. Male normotensive Sprague-Dawley rat frontal cortex is dissected, frozen in liquid nitrogen and stored at -20° C. until needed. Tissues from 4-8 rats are pooled and homogenized in 70 vol Tris-HCl buffer (50 mM, pH 7.7), using a kinematica Polytron (setting 2/3 max speed, 20 sec). The homogenate is centrifuged (36500×g for 10 min), the pellet re-homogenised in the same volume of buffer and the process is repeated two more times. Between the second and third centrifugations the tissue homogenate is incubated at 37° C. for 10 min. The final pellet is suspended in the same volume of Tris buffer containing 10 µM pargyline, 5.7 mM CaCl2 and 0.1% ascorbic acid. This suspension is incubated for 10 min at 37° C. and then stored on ice until used in the binding assay.
Tissue homogenate (0.7 ml), radioactive ligand (0.1 ml) and the appropriate concentration of test compound (0.1 ml), together with buffer to a final volume of 1 ml are incubated at 37° C. for 15 min. Incubations are terminated by rapid filtration through Whatman GF/B filters followed by three 5 ml washes with ice-cold Tris-HCl buffer (50 mM, pH 7.0). Radioactivity is measured following extraction into Aquasol-Z (NEN) at an efficiency of 45-50%. The radioligand used to label the 5-HT1A recognition sites and its concentration is [^3 H]-8-hydroxy-2-(di-n-propylamino)-tetralin, [^3 H]-8-OH-DPAT, […].
Following essentially the above procedure, the following compounds were tested. Results are expressed as pIC50 ([…] concentration of test compound which inhibits specific binding by 50%).

| SMILES | Licks taken over 3 min. period ([1]; dose 0.75 mg/kg) | IC50 (5-HT1A recognition sites) [µM] | Licks taken over 3 min. period ([1]; dose 0.05 mg/kg) | Licks taken over 3 min. period ([1]; dose 0.25 mg/kg) | Licks taken over 3 min. period ([1]; dose 1.25 mg/kg) |
| --- | --- | --- | --- | --- | --- |
| CN1C(=O)CN=C(c2ccccc2)c2cc(Cl)ccc21 [Diazepam, reference compound] | 247 ± 36 |  |  |  |  |
| CC1(C)CC(=O)SC(=NCCCCNCC2COc3ccccc3O2)N1 (stereo not shown) [Example I, 2-[4-[(2,3-dihydro-1,4-benzodioxin-2-yl)methylamino]butylimino]-tetrahydro-4,4-dimethyl-6H-1,3-thiazin-6-one oxalate] |  | 0.00282 |  |  |  |
| CC1(C)CC(=O)SC(=NCCCCN2CCN(c3ncccn3)CC2)N1 [Example II, 2-[4-[4-(2-Pyrimidinyl)-1-piperazinyl]butylimino]-tetrahydro4,4-dimethyl-6H-1,3-thiazin-6-one] |  | 0.0479 | 150 ± 28 | 223 ± 34 | 220 ± 27 |
| O=C1CC2(CCCC2)NC(=NCCCCN2CCN(c3ncccn3)CC2)S1 [Example III, 2-[4-[4-(2-Pyrimidinyl)-1-piperazinyl]-butylimino]-tetrahydro-4,4-tetramethylene-6H-1,3-thiazin-6-one] |  | 0.166 |  |  |  |
